In PMC5794780, “ATP-dependent conformational change in ABC-ATPase RecF serves as a switch in DNA repair” (Scientific Reports, 2018):

Columns and labels:
[1] = target: T1, TTERecF (Caldanaerobacter subterraneus, UniProt Q8RDL3); test: isothermal titration calorimetry; assay type: binding
T1 construct: gene recF; 42 kDa monomer, 84 kDa dimer with ATP or ATPγS

[2] = target: T2, TTERecF (Caldanaerobacter subterraneus, UniProt Q8RDL3, S282A); test: isothermal titration calorimetry; assay type: binding; settings: pH 7.0, 20 mM Tris-HCl, 200 mM NaCl, 25 °C; one-site model; signature motif mutant
T2 construct: gene recF; 42 kDa monomer, 84 kDa dimer with ATP or ATPγS

[3] = target: T3, TTERecF (Caldanaerobacter subterraneus, UniProt Q8RDL3, S283A); test: isothermal titration calorimetry; assay type: binding; settings: pH 7.0, 20 mM Tris-HCl, 200 mM NaCl, 25 °C; one-site model; signature motif mutant
T3 construct: gene recF; 42 kDa monomer, 84 kDa dimer with ATP or ATPγS

[4] = target: T4, TTERecF (Caldanaerobacter subterraneus, UniProt Q8RDL3, N38A); test: isothermal titration calorimetry; assay type: binding; settings: pH 7.0, 20 mM Tris-HCl, 200 mM NaCl, 25 °C; one-site model; Walker A mutant
T4 construct: gene recF; 42 kDa monomer, 84 kDa dimer with ATP or ATPγS

[5] = target: T5, TTERecF (Caldanaerobacter subterraneus, UniProt Q8RDL3, K36A); test: isothermal titration calorimetry; assay type: binding
T5 construct: gene recF; 42 kDa monomer, 84 kDa dimer with ATP or ATPγS

[6] = target: T6, TTERecF (Caldanaerobacter subterraneus, UniProt Q8RDL3, G35A); test: isothermal titration calorimetry; assay type: binding; settings: pH 7.0, 20 mM Tris-HCl, 200 mM NaCl, 25 °C; one-site model; Walker A mutant
T6 construct: gene recF; 42 kDa monomer, 84 kDa dimer with ATP or ATPγS

[7] = target: T7, TTERecF (Caldanaerobacter subterraneus, UniProt Q8RDL3, S37A); test: isothermal titration calorimetry; assay type: binding
T7 construct: gene recF; 42 kDa monomer, 84 kDa dimer with ATP or ATPγS

[8] = target: T8, TTERecF (Caldanaerobacter subterraneus, UniProt Q8RDL3, Q286A); test: isothermal titration calorimetry; assay type: binding; settings: pH 7.0, 20 mM Tris-HCl, 200 mM NaCl, 25 °C; one-site model; signature motif mutant
T8 construct: gene recF; 42 kDa monomer, 84 kDa dimer with ATP or ATPγS

[9] = target: T9, TTERecF-ATP dimer (Thermoanaerobacter tengcongensis MB4, UniProt Q8RDL3 1-364); test: BLI; ATP (1 mM in preincubation); kd 1.44E-03 s-1; BLI: 20 mM Tris-HCl pH 7.0, 200 mM NaCl, 0.05% Tween 20, 25 C; biotinylated DNA on streptavidin sensors; no Mg2+ stated; settings: protein: recombinant; tags: N-terminal His6; chain copies: 2; label: 5' biotin
T9 sequence: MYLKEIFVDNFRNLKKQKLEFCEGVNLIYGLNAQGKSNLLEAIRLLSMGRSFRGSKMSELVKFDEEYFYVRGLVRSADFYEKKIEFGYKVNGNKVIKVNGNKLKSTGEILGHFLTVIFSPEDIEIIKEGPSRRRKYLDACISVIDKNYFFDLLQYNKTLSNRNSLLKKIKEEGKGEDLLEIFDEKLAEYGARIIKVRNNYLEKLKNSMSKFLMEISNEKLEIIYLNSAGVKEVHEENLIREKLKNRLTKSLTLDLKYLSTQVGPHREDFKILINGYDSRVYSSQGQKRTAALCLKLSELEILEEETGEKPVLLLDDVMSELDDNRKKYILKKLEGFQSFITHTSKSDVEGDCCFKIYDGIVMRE

T5 sequence (Q8RDL3 whole entry K36A): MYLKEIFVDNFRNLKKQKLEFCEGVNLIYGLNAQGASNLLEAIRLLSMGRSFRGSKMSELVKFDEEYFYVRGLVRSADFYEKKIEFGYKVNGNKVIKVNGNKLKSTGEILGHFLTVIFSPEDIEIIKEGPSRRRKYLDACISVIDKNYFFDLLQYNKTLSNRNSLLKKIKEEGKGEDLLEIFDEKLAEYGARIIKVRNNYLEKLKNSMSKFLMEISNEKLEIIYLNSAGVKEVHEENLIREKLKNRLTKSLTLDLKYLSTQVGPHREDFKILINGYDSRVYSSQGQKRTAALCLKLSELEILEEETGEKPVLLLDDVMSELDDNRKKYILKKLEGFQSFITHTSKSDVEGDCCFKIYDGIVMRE
T3 sequence (Q8RDL3 whole entry S283A): as the sequence (Q8RDL3 whole entry K36A) above, with A36K, S283A counted along it
T4 sequence (Q8RDL3 whole entry N38A): as the sequence (Q8RDL3 whole entry K36A) above, with A36K, N38A counted along it
T6 sequence (Q8RDL3 whole entry G35A): as the sequence (Q8RDL3 whole entry K36A) above, with G35A, A36K counted along it
T8 sequence (Q8RDL3 whole entry Q286A): as the sequence (Q8RDL3 whole entry K36A) above, with A36K, Q286A counted along it
T7 sequence (Q8RDL3 whole entry S37A): as the sequence (Q8RDL3 whole entry K36A) above, with A36K, S37A counted along it
T2 sequence (Q8RDL3 whole entry S282A): as the sequence (Q8RDL3 whole entry K36A) above, with A36K, S282A counted along it

Q: What does the source list for Nc1ncnc2c1ncn2[C@@H]1O[C@H](COP(=O)(O)OP(=O)(O)OP(=O)(O)O)[C@@H](O)[C@H]1O [ATP]?
A: Kd [1]: 1.3 µM; KD [2]: conserved mutant residues S282A, S283A, and Q286A in signature motif was similar; KD [3]: conserved mutant residues S282A, S283A, and Q286A in signature motif was similar; hardly interacted [4]: The mutants G35A and N38A hardly interacted with ATP; Kd [5]: 38 ± 8.7 µM; hardly interacted [6]: The mutants G35A and N38A hardly interacted with ATP; Kd [7]: 27 ± 7.9 µM; KD [8]: conserved mutant residues S282A, S283A, and Q286A in signature motif was similar

Q: How did the Kd [1] turn out when Nc1ncnc2c1ncn2[C@@H]1O[C@H](CO[P@](=O)(O)O[P@](=O)(O)O[P@@](=O)(O)S)[C@@H](O)[C@H]1O [ATPɤS] was run?
A: 32 µM

Q: With ACCTTATGGAAAGCATCGTAG (ssDNA) [21mer ssDNA] as the molecule, how does the Kd [9] read?
A: 0.016 µM
